In ChEMBL document CHEMBL1201862, “PubChem BioAssay data set” (2004):
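Exposure lasted 48 hours, with cells grown in 96-well plates and compounds tested at five concentrations. At the GI50, growth is halved.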 Activity calls are given as the source filed them. Rule as the data show it: active = GI50 up to about 1.1 µM and inactive = higher.

Legend:
Assay in all cases: DTP human tumour cell line panel, 48 h
[1] = tested on: A549
[2] = tested on: 786-0
[3] = tested on: OVCAR-8
[4] = tested on: OVCAR-5
[5] = tested on: OVCAR-3
[6] = tested on: DMS-273
[7] = tested on: OVCAR-4
[8] = tested on: HCC 2998
[9] = tested on: COLO 205
[10] = tested on: HL-60
[11] = tested on: UACC-257
[12] = tested on: UACC-62
[13] = tested on: SK-OV-3
[14] = tested on: SR
[15] = tested on: MCF7
[16] = tested on: DU-145
[17] = tested on: MDA-MB-435
[18] = tested on: Hs-578T
[19] = tested on: PC-3
[20] = tested on: MDA-MB-231

Structure (SMILES)	GI50 [1]	GI50 [2]	GI50 [3]	GI50 [4]	GI50 [5]	GI50 [6]	GI50 [7]	GI50 [8]	GI50 [9]	GI50 [10]	GI50 [11]	GI50 [12]	GI50 [13]	GI50 [14]	GI50 [15]	GI50 [16]	GI50 [17]	GI50 [18]	GI50 [19]	GI50 [20]
CC1CCC(C(C)C)C(O[C@@H]2OC(=O)C[C@@H]2Sc2ccccc2)C1 (stereo not given in full)	24.9 µM (inactive)	21 µM (inactive)	18.9 µM (inactive)	43 µM (inactive)	14.5 µM (inactive)	18.4 µM (inactive)	15.9 µM (inactive)	24.7 µM (inactive)	18.5 µM (inactive)	18.2 µM (inactive)	16.3 µM (inactive)	24.7 µM (inactive)	49.8 µM (inactive)	–	–	–	–	–	–	–
CCOC(=O)CNc1nnnn1C1OC(CO)C(O)C1O (stereo not given)	> 100 µM (inactive)	> 100 µM (inactive)	> 100 µM (inactive)	> 100 µM (inactive)	> 100 µM (inactive)	> 100 µM (inactive)	–	> 100 µM (inactive)	> 100 µM (inactive)	–	> 100 µM (inactive)	> 100 µM (inactive)	> 100 µM (inactive)	–	–	–	–	–	–	–
N#CNC(=N)NC(=O)/C=C/C=C/c1ccc(Cl)cc1	> 100 µM (inactive)	88.5 µM (inactive)	82.2 µM (inactive)	> 100 µM (inactive)	> 100 µM (inactive)	> 100 µM (inactive)	57.5 µM (inactive)	–	> 100 µM (inactive)	> 100 µM (inactive)	> 100 µM (inactive)	> 100 µM (inactive)	> 100 µM (inactive)	72.9 µM (inactive)	–	–	–	–	–	–
OCC1=CC(NC2CC(CO)C(O)C(O)C2O)C(O)C(O)C1O (stereo not given)	> 100 µM (inactive)	> 100 µM (inactive)	> 100 µM (inactive)	–	> 100 µM (inactive)	> 100 µM (inactive)	–	–	> 100 µM (inactive)	–	> 100 µM (inactive)	> 100 µM (inactive)	> 100 µM (inactive)	–	–	–	–	–	–	–
CCCCCCCCCCCCCCC(O)C1CCC(C(O)CCC(O)CCCCCC(O)CC2=CC(C)OC2=O)O1 (stereo not given)	2.2 µM (inactive)	2.43 µM (inactive)	2.07 µM (inactive)	4.4 µM (inactive)	1.13 µM (inactive)	1.4 µM (inactive)	0.013 µM (active)	2.51 µM (inactive)	2.43 µM (inactive)	0.0117 µM (active)	0.18 µM (active)	2.33 µM (inactive)	4.73 µM (inactive)	–	–	–	–	–	–	–
O=C(C/C(CCC(=O)N(Cc1ccccc1)Cc1ccccc1)=N/Nc1ccc([N+](=O)[O-])cc1[N+](=O)[O-])c1ccccc1	86.1 µM (inactive)	> 100 µM (inactive)	> 100 µM (inactive)	> 100 µM (inactive)	> 100 µM (inactive)	> 100 µM (inactive)	60.8 µM (inactive)	74.5 µM (inactive)	> 100 µM (inactive)	41.2 µM (inactive)	> 100 µM (inactive)	25.9 µM (inactive)	> 100 µM (inactive)	–	–	–	–	–	–	–
COc1cccc(NC(=O)C(=O)C(C(=O)c2ccccc2F)C2OC(=O)c3ccccc32)c1 (stereo not given)	45.3 µM (inactive)	–	21.8 µM (inactive)	59 µM (inactive)	–	29 µM (inactive)	36.4 µM (inactive)	17.9 µM (inactive)	14.6 µM (inactive)	20.7 µM (inactive)	> 100 µM (inactive)	26 µM (inactive)	35.2 µM (inactive)	16.6 µM (inactive)	–	–	–	–	–	–
C[C@]12CCC(=O)C=C1CC[C@@H]1[C@@H]2[C@@H](O)C[C@@]2(C)[C@H]1CC[C@]2(O)C(=O)COC(=O)COCC(=O)O	> 100 µM (inactive)	> 100 µM (inactive)	> 100 µM (inactive)	> 100 µM (inactive)	> 100 µM (inactive)	> 100 µM (inactive)	> 100 µM (inactive)	> 100 µM (inactive)	> 100 µM (inactive)	> 100 µM (inactive)	> 100 µM (inactive)	> 100 µM (inactive)	> 100 µM (inactive)	–	–	–	–	–	–	–
Sc1nnc(COc2ccc(Cl)cc2)o1	> 100 µM (inactive)	> 100 µM (inactive)	> 100 µM (inactive)	> 100 µM (inactive)	> 100 µM (inactive)	> 100 µM (inactive)	> 100 µM (inactive)	> 100 µM (inactive)	> 100 µM (inactive)	> 100 µM (inactive)	> 100 µM (inactive)	> 100 µM (inactive)	> 100 µM (inactive)	–	–	–	–	–	–	–
CC1(C)OCC(C(O)C2OC(C)(C)OC2/C=N\O)O1 (stereo not given)	> 100 µM (inactive)	> 100 µM (inactive)	> 100 µM (inactive)	> 100 µM (inactive)	> 100 µM (inactive)	> 100 µM (inactive)	–	> 100 µM (inactive)	> 100 µM (inactive)	> 100 µM (inactive)	> 100 µM (inactive)	–	> 100 µM (inactive)	–	–	–	–	–	–	–
COc1ccc(-c2cc(-c3ccco3)c(C#N)c(=O)[nH]2)cc1	91.4 µM (inactive)	91 µM (inactive)	36.8 µM (inactive)	> 100 µM (inactive)	22.7 µM (inactive)	31 µM (inactive)	29.2 µM (inactive)	> 100 µM (inactive)	> 100 µM (inactive)	> 100 µM (inactive)	77.4 µM (inactive)	> 100 µM (inactive)	23.2 µM (inactive)	–	–	–	–	–	–	–
O=C(O/N=C1\CCCC\C1=C/c1ccccc1)c1ccc([N+](=O)[O-])cc1	88.5 µM (inactive)	98.6 µM (inactive)	> 100 µM (inactive)	> 100 µM (inactive)	42.1 µM (inactive)	> 100 µM (inactive)	33.1 µM (inactive)	> 100 µM (inactive)	> 100 µM (inactive)	76.9 µM (inactive)	–	> 100 µM (inactive)	> 100 µM (inactive)	> 100 µM (inactive)	–	–	–	–	–	–
CC(C)(C)N/N=C(\Cc1occc(=O)c1O)C(=O)Nc1ccc([N+](=O)[O-])cc1[N+](=O)[O-]	> 100 µM (inactive)	> 100 µM (inactive)	> 100 µM (inactive)	> 100 µM (inactive)	–	> 100 µM (inactive)	> 100 µM (inactive)	–	> 100 µM (inactive)	> 100 µM (inactive)	> 100 µM (inactive)	> 100 µM (inactive)	> 100 µM (inactive)	> 100 µM (inactive)	–	–	–	–	–	–
CC(C)=CCC[C@](C)(O)[C@H]1CC[C@]2(C)[C@@H]1[C@H](O)C[C@@H]1[C@@]3(C)CC[C@H](O[C@@H]4O[C@H](CO)[C@@H](O)[C@H](O)[C@H]4O)C(C)(C)[C@@H]3CC[C@]12C [GINSENOSIDE RH2]	18.8 µM (inactive)	20.2 µM (inactive)	17.9 µM (inactive)	26.2 µM (inactive)	17.9 µM (inactive)	–	21.5 µM (inactive)	27.9 µM (inactive)	19.5 µM (inactive)	21 µM (inactive)	20.9 µM (inactive)	16.6 µM (inactive)	18.5 µM (inactive)	14 µM (inactive)	17.3 µM (inactive)	19.5 µM (inactive)	18.2 µM (inactive)	21.9 µM (inactive)	17.6 µM (inactive)	18.2 µM (inactive)
Cn1c(=O)nc2n(-c3ccc(O)cc3)c3ccccc3nc-2c1=O	36.7 µM (inactive)	17.3 µM (inactive)	44.5 µM (inactive)	> 100 µM (inactive)	17.9 µM (inactive)	11.5 µM (inactive)	> 100 µM (inactive)	29.9 µM (inactive)	23.9 µM (inactive)	> 100 µM (inactive)	> 100 µM (inactive)	16.4 µM (inactive)	> 100 µM (inactive)	–	–	–	–	–	–	–
C(#CC1(Nc2ccccc2)CCN(Cc2ccccc2)CC1)C1(Nc2ccccc2)CCN(Cc2ccccc2)CC1	23.6 µM (inactive)	17.3 µM (inactive)	21.6 µM (inactive)	53.3 µM (inactive)	37.8 µM (inactive)	–	19.3 µM (inactive)	0.818 µM (active)	1.31 µM (inactive)	1.56 µM (inactive)	2.08 µM (inactive)	13.2 µM (inactive)	5.01 µM (inactive)	3.15 µM (inactive)	31.5 µM (inactive)	46.9 µM (inactive)	25.8 µM (inactive)	10 µM (inactive)	15.1 µM (inactive)	16.3 µM (inactive)
O=S(=O)(c1ccc2ccccc2c1)N1CCN(S(=O)(=O)c2ccc3ccccc3c2)CC1	> 100 µM (inactive)	> 100 µM (inactive)	93.1 µM (inactive)	> 100 µM (inactive)	36 µM (inactive)	–	> 100 µM (inactive)	> 100 µM (inactive)	> 100 µM (inactive)	> 100 µM (inactive)	> 100 µM (inactive)	> 100 µM (inactive)	51.3 µM (inactive)	> 100 µM (inactive)	> 100 µM (inactive)	> 100 µM (inactive)	> 100 µM (inactive)	31 µM (inactive)	> 100 µM (inactive)	> 100 µM (inactive)
COc1cc(-c2cc(O)c3ccccc3n2)cc(OC)c1OC	> 75 µM (inactive)	> 75 µM (inactive)	> 75 µM (inactive)	–	> 75 µM (inactive)	> 75 µM (inactive)	–	> 75 µM (inactive)	> 75 µM (inactive)	> 7.5 µM (inactive)	> 75 µM (inactive)	> 75 µM (inactive)	> 75 µM (inactive)	> 75 µM (inactive)	–	–	–	–	–	–
OCCO[P+]1(OCCO)n2c3ccc2C(c2ccccc2)=C2C=CC(=N2)C(c2ccccc2)=c2ccc(n21)=C(c1ccccc1)C1=NC(=C3c2ccccc2)C=C1	0.0389 µM (active)	0.0764 µM (active)	0.0767 µM (active)	0.102 µM (active)	0.0218 µM (active)	–	0.0719 µM (active)	0.0195 µM (active)	0.013 µM (active)	0.0152 µM (active)	0.0207 µM (active)	0.0303 µM (active)	0.0561 µM (active)	< 0.0106 µM (active)	0.0267 µM (active)	0.0316 µM (active)	0.0296 µM (active)	0.0237 µM (active)	0.0299 µM (active)	0.042 µM (active)
